≈ marks a conversion by molar mass, not a printed value.
Tests used:
P. aeruginosa biofilms = experiment: Biofilm growth assay (spreading biofilm on semi-solid agar), P. aeruginosa; type: cell-based; details: biofilm growth assay, overnight 37° C., vs negative controls, Tables 1-5; for IC85: Pseudomonas aeruginosa, read-out: P. aeruginosa: concentration that reduces the area of the spreading biofilm by greater than or equal to 85%
Summary of the method: (§1)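 Values are compound concentrations (μg/ml) that cut the spreading-biofilm zone area by ≥85% relative to negative controls after overnight 37 °C growth from 5 μL central inoculum. E. coli plates: LB, 0.6% agar, 0.5% glucose; P. aeruginosa plates: M8 agar plus 0.2% glucose, 100 μM CaCl2, 1 mM MgSO4, 0.5% Casamino acids.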

E. coli biofilms = experiment: Biofilm growth assay (spreading biofilm on semi-solid agar), E. coli; type: cell-based; details: biofilm growth assay, overnight 37° C., vs negative controls, Tables 1-5; for IC85: Escherichia coli, read-out: E. coli: concentration that reduces the area of the spreading biofilm by greater than or equal to 85%
Summary of the method: as §1

SMILES | IC85 (P. aeruginosa biofilms) | IC85 (E. coli biofilms) | P. aeruginosa: concentration that reduces the area of the spreading biofilm by greater than or equal to 85% (P. aeruginosa biofilms) | E. coli: concentration that reduces the area of the spreading biofilm by greater than or equal to 85% (E. coli biofilms)
CC1(C)CC[C@]2(C(=O)O)CC[C@]3(C)C(=C(c4ccccc4N)CC4[C@@]5(C)Cc6c(n[nH]c6N)C(C)(C)C5CC[C@]43C)C2C1 (stereo partly drawn) [Example 23, (4aS,6aS,6bR,13aR)-12-Amino-15-(2-aminophenyl)-2,2,6a,6b,9,9,13a-heptamethyl-2,3,4,4a,5,6,6a,6b,7,8,8a,9,11,13,13a,13b,14,15b-octadecahydro-1H-chryseno[1,2-f]indazole-4-a-carboxylic acid] | 1 µg/mL (≈ 1.71 µM) | 2 µg/mL (≈ 3.42 µM) | – | –
CC1(C)CC[C@]2(C(=O)O)CC[C@]3(C)C(=C(Cl)CC4[C@@]5(C)Cc6c(n[nH]c6N)C(C)(C)C5CC[C@]43C)C2C1 (stereo partly drawn) [Example 24, (4aS,6aS,6bR,13aR)-12-Amino-15-chloro-2,2,6a,6b,9,9,13a-heptamethyl-2,3,4,4a,5,6,6a,6b,7,8,8a,9,11,13,13a,13b,14,15b-octadecahydro-1H-chryseno[1,2-f]indazole-4-a-carboxylic acid] | 0.5 µg/mL (≈ 0.947 µM) | 1 µg/mL (≈ 1.89 µM) | – | –
CC1(C)CC[C@]2(C(=O)O)CC[C@]3(C)C(=C(Br)CC4[C@@]5(C)Cc6c(n[nH]c6N)C(C)(C)[C@@H]5CC[C@]43C)[C@@H]2C1 (stereo partly drawn) [Example 25, (4aS,6aS,6bR,8aR,13aR,15bR)-12-Amino-15-bromo-2,2,6a,6b,9,9,13a-heptamethyl-2,3,4,4a,5,6,6a,6b,7,8,8a,9,11,13,13a,13b,14,15b-octadecahydro-1H-chryseno[1,2-f]indazole-4-a-carboxylic acid] | – | – | 0.5 µg/mL | >2 µg/mL
CC1(C)CC[C@]2(C(=O)O)CC[C@]3(C)C(=C(c4ccoc4)CC4[C@@]5(C)Cc6c(n[nH]c6N)C(C)(C)[C@@H]5CC[C@]43C)[C@@H]2C1 (stereo partly drawn) [Example 26, (4aS,6aS,6bR,8aR,13aR,15bS)-12-Amino-15-(furan-3-yl)-2,2,6a,6b,9,9,13a-heptamethyl-2,3,4,4a,5,6,6a,6b,7,8,8a,9,11,13,13a,13b,14,15b-octadecahydro-1H-chryseno[1,2-f]indazole-4-a-carboxylic acid] | – | – | 0.25 µg/mL | 1 µg/mL
CC1(C)CC[C@]2(C(=O)O)CC[C@]3(C)C(=C(c4cn[nH]c4)CC4[C@@]5(C)Cc6c(n[nH]c6N)C(C)(C)[C@@H]5CC[C@]43C)[C@@H]2C1 (stereo partly drawn) [Example 27, (4aS,6aS,6bR,8aR,13aR,15bS)-12-Amino-2,2,6a,6b,9,9,13a-heptamethyl-15-(1H-pyrazol-4-yl)-2,3,4,4a,5,6,6a,6b,7,8,8a,9,11,13,13a,13b,14,15b-octadecahydro-1H-chryseno[1,2-f]indazole-4-a-carboxylic acid] | – | – | 1 µg/mL | >2 µg/mL
Cn1cc(C2=C3[C@@H]4CC(C)(C)CC[C@]4(C(=O)O)CC[C@@]3(C)[C@]3(C)CC[C@H]4C(C)(C)c5n[nH]c(N)c5C[C@]4(C)C3C2)cn1 (stereo partly drawn) [Example 28, (4aS,6aS,6bR,8aR,13aR,15bS)-12-Amino-2,2,6a,6b,9,9,13a-heptamethyl-15-(1-methyl-1H-pyrazol-4-yl)-2,3,4,4a,5,6,6a,6b,7,8,8a,9,11,13,13a,13b,14,15b-octadecahydro-1H-chryseno[1,2-f]indazole-4-a-carboxylic acid] | – | – | 1 µg/mL | 2 µg/mL
CC1(C)CC[C@]2(C(=O)O)CC[C@]3(C)C(=C(c4ccncc4)CC4[C@@]5(C)Cc6c(n[nH]c6N)C(C)(C)[C@@H]5CC[C@]43C)[C@@H]2C1 (stereo partly drawn) [Example 29, (4aS,6aS,6bR,8aR,13aR,15bS)-12-Amino-2,2,6a,6b,9,9,13a-heptamethyl-15-(pyridin-4-yl)-2,3,4,4a,5,6,6a,6b,7,8,8a,9,11,13,13a,13b,14,15b-octadecahydro-1H-chryseno[1,2-f]indazole-4-a-carboxylic acid] | – | – | 1 µg/mL | 1 µg/mL
CC1(C)CC[C@]2(C(=O)O)CC[C@]3(C)C(=C(c4cncnc4)CC4[C@@]5(C)Cc6c(n[nH]c6N)C(C)(C)[C@@H]5CC[C@]43C)[C@@H]2C1 (stereo partly drawn) [Example 30, (4aS,6aS,6bR,8aR,13aR,15bS)-12-Amino-2,2,6a,6b,9,9,13a-heptamethyl-15-(pyrimidin-5-yl)-2,3,4,4a,5,6,6a,6b,7,8,8a,9,11,13,13a,13b,14,15b-octadecahydro-1H-chryseno[1,2-f]indazole-4-a-carboxylic acid] | – | – | 2 µg/mL | 1 µg/mL
CC1(C)CC[C@]2(C(=O)O)CC[C@]3(C)C(=C(c4ccc(N)c(F)c4)CC4[C@@]5(C)Cc6c(n[nH]c6N)C(C)(C)C5CC[C@]43C)C2C1 (stereo partly drawn) [Example 31, (4aS,6aS,6bR,13aR)-12-Amino-15-(4-amino-3-fluorophenyl)-2,2,6a,6b,9,9,13a-heptamethyl-2,3,4,4a,5,6,6a,6b,7,8,8a,9,11,13,13a,13b,14,15b-octadecahydro-1H-chryseno[1,2-f]indazole-4-a-carboxylic acid] | – | – | 0.5 µg/mL | 1 µg/mL
CC1(C)CC[C@]2(C(=O)O)CC[C@]3(C)C(=C(c4ccoc4CN4CCOCC4)CC4[C@@]5(C)Cc6c(n[nH]c6N)C(C)(C)[C@@H]5CC[C@]43C)[C@@H]2C1 (stereo partly drawn) [Example 32, (4aS,6aS,6bR,8aR,13aR,15bS)-12-Amino-2,2,6a,6b,9,9,13a-heptamethyl-15-(2-(morpholinomethyl)furan-3-yl)-2,3,4,4a,5,6,6a,6b,7,8,8a,9,11,13,13a,13b,14,15b-octadecahydro-1H-chryseno[1,2-f]indazole-4-a-carboxylic acid] | – | – | 0.5 µg/mL | 1 µg/mL
CC1(C)CC[C@]2(C(=O)O)CC[C@]3(C)C(=C(c4c[nH]cc4CN4CCOCC4)CC4[C@@]5(C)Cc6c(n[nH]c6N)C(C)(C)[C@@H]5CC[C@]43C)[C@@H]2C1 (stereo partly drawn) [Example 33, (4aS,6aS,6bR,8aR,13aR,15bS)-12-Amino-2,2,6a,6b,9,9,13a-heptamethyl-15-(4-(morpholinomethyl)-1H-pyrrol-3-yl)-2,3,4,4a,5,6,6a,6b,7,8,8a,9,11,13,13a,13b,14,15b-octadecahydro-1H-chryseno[1,2-f]indazole-4-a-carboxylic acid] | – | – | 2 µg/mL | 4 µg/mL

— US8324264B1, “Inhibitors of bacterial biofilms and related methods” (Sequoia Sciences, Inc., priority 2011, dated 2012)
